This is an account of results in US7012099B2, “Use of substituted 4-amino-1-phenylbutan-2-ol compounds as medicaments” (Gruenenthal GmbH, priority 1999, dated 2006).

Structures can show the parent of a compound that is named as a salt.

For the test, the target named is T1, ORL1 receptor (Homo sapiens, UniProt P41146).
T1 construct: expressed in transfected cells; host or cells: CHO (recombinant CHO-ORL1 cells), membranes
T1 sequence (P41146 whole entry): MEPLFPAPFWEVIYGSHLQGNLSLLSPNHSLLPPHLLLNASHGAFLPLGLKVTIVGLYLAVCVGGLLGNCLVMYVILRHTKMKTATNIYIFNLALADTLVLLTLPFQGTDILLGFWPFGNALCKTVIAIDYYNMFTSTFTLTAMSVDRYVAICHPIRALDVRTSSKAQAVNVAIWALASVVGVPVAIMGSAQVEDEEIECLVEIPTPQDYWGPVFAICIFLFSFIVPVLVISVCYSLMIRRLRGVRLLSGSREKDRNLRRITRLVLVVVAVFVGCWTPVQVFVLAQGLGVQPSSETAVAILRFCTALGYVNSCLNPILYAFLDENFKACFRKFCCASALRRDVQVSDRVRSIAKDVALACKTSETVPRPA
Description: ORL1 receptor binding assay using 3H-nociceptin/orphanin FQ with membranes of recombinant CHO-ORL1 cells. The conditions noted are these: 3H-nociceptin/orphanin FQ 0.5 nM, WGA-SPA beads, one hour at room temperature. Here is the method: The 4-amino-1-phenylbutan-2-ol compounds of the general formula I have been studied in a receptor binding assay using ^3H-nociceptin/orphanin FQ with membranes of recombinant CHO-ORL1 cells. That test system was carried out according to the method put forward by Ardati et al. (Mol. Pharmacol., 51, 1997, p. 816–824). The concentration of ^3H-nociceptin/orphanin FQ in those tests was 0.5 nM. The binding assays were carried out using in each case 20 μg of membrane protein per 200 μl batch in 50 mM Hepes, pH 7.4, 10 mM MgCl2 and 1 mM EDTA. Binding to the ORL1 receptor was determined using in each case 1 mg of WGA-SPA beads (Amersham-Pharmacia, Freiburg) by incubation of the batch for one hour at room temperature and subsequent measurement in a Trilux scintillation counter (Wallac, Finland). The affinity is given as the Ki value.
For each of the compounds of Examples 1 to 7, the affinity for the ORL1 receptor was determined according to the mentioned molecular-pharmacological investigations.
`CN(C)C(c1ccccc1)C1CCCCC1(O)Cc1cccc(Cl)c1` (stereo not shown) [Example 2, 1-(3-chlorobenzyl)-2-(dimethylaminophenylmethyl)cyclohexanol hydrochloride]: the Ki was 2100 nM.

As to `CN(C)C(c1ccsc1)C1CCCCC1(O)Cc1cccc(C(F)(F)F)c1` (stereo not shown) [Example 7, 2-(dimethylaminothiophen-3-ylmethyl)-1-(3-trifluoromethylbenzyl)cyclohexanol hydrochloride], the Ki stood at 330 nM.

With `CN(C)C(c1ccccc1)C1CCCCC1(O)Cc1ccccc1Cl` (stereo not shown) [Example 1, 1-(2-Chlorobenzyl)-2-(dimethylaminophenylmethyl)cyclohexanol hydrochloride], the inhibition constant Ki stood at 6000 nM.

Regarding `CN(C)C(c1cccs1)C1CCCCC1(O)Cc1cccc(C(F)(F)F)c1` (stereo not shown) [Example 6, 2-(dimethylaminothiophen-2-ylmethyl)-1-(3-trifluoromethylbenzyl)cyclohexanol Hydrochloride], the Ki came out at 600 nM.

As for `CN(C)C(c1ccccc1)C1CCCCC1(O)Cc1ccc(Cl)cc1` (stereo not shown) [Example 3, 1-(4-chlorobenzyl)-2-(dimethylaminophenylmethyl)-1-cyclohexanol hydrochloride], the inhibitory constant (Ki) turned out to be 1700 nM.

Consider `CN(C)C(c1ccccc1)C1CCCCC1(O)Cc1ccc(F)c(F)c1` (stereo not shown) [Example 4, 1-(3,4-difluorobenzyl)-2-(dimethylaminophenylmethyl)cyclohexanol hydrochloride], for which the Ki is 1900 nM.

For the molecule `CN(C)C(c1ccccc1)C1CCCCC1(O)Cc1cccc(C(F)(F)F)c1` (stereo not shown) [Example 5, 2-(dimethylaminophenylmethyl)-1-(3-trifluoromethylbenzyl)cyclohexanol hydrochloride], the Ki is 900 nM.
